From BindingDB's records for doi:10.7270/Q25719FH (Srmlsc, 2007) come the findings set out here.

Each structure is given as a SMILES string.

In this assay the target is Multidrug resistance-associated protein 1 (Homo sapiens, UniProt P33527). Description: doxorubicin EC50 increase in MRP-1 cells, dose response, cell-based, doxorubicin EC50 shift (AID 844).
Chain of Multidrug resistance-associated protein 1 (P33527 whole entry): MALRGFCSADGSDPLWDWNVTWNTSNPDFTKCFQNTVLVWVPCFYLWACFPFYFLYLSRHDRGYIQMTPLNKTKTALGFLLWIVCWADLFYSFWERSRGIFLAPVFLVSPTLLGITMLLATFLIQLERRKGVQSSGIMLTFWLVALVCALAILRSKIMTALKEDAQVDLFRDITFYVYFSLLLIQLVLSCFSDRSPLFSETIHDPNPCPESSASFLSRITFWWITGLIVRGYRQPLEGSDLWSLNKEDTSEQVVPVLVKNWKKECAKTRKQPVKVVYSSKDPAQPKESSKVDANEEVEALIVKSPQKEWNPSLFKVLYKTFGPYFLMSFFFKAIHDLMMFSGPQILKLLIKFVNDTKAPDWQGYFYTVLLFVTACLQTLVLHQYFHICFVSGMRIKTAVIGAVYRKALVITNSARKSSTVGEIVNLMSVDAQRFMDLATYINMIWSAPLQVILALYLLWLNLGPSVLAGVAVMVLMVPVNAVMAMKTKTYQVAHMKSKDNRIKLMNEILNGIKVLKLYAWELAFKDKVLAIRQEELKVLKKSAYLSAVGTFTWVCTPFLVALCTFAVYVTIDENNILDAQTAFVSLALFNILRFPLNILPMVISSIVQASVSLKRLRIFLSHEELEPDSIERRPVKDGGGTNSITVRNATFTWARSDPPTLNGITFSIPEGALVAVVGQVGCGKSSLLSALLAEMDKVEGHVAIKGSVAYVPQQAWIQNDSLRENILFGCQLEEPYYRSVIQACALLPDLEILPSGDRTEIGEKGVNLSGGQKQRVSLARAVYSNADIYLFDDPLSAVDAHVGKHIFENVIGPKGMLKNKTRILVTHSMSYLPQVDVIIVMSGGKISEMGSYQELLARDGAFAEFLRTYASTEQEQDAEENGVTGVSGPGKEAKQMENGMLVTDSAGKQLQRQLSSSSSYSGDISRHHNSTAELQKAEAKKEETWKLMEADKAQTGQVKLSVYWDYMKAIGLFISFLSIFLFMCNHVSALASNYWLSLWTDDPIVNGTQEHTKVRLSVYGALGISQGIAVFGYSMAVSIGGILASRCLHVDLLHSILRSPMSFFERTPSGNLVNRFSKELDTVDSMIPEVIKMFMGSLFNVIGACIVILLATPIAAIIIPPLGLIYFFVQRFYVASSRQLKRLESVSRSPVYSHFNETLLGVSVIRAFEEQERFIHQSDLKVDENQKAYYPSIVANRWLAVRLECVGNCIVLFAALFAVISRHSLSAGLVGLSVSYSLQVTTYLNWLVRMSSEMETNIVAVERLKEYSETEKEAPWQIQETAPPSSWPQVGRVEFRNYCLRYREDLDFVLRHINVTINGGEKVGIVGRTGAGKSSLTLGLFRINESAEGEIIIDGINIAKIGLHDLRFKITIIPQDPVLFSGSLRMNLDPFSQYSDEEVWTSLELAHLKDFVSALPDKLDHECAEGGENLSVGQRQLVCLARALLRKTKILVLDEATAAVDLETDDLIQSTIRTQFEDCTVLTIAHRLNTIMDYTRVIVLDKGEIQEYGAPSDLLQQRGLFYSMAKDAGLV

For orientation: EC50 means the midpoint of the concentration-response curve. As to `O=CC(=NNc1ccccc1)C(=O)c1ccncc1` [3-keto-2-(phenylhydrazono)-3-(4-pyridyl)propionaldehyde], the EC50 was determined as 7.54 µM.
The figure for `Cc1cc(=O)oc2c1ccc1oc(C(N=O)c3ccccc3)c(C)c12` (stereo unspecified) [4,9-dimethyl-8-(N-oxidanyl-C-phenyl-carbonimidoyl)furo[2,3-h]chromen-2-one] is 7.02 µM; for `COc1ccc(CN=Nc2nc(-c3ccc(Cl)cc3)cc(C(F)(F)F)n2)cc1OC` [4-(4-chlorophenyl)-N-[(3,4-dimethoxyphenyl)methylideneamino]-6-(trifluoromethyl)-2-pyrimidinamine] it is 1.9 µM.
The figure for `O=C(CCCCl)Nc1cc(=O)n(-c2ccccc2)[nH]1` [4-Chloro-N-(5-oxo-1-phenyl-4,5-dihydro-1H-pyrazol-3-yl)-butyramide] is 8.43 µM.
As for `CCN(CC)S(=O)(=O)c1ccc(N=NC(C#N)C#N)cc1` [4-[2-(dicyanomethylene)hydrazino]-N,N-diethylbenzenesulfonamide], the EC50 stood at 3.7 µM.
Consider `O=C(O)c1ccc(N=NCc2ccc(F)c(F)c2)cc1` [4-[2-[(3,4-difluorophenyl)methylidene]hydrazinyl]benzoic acid;sulfuric acid], for which the concentration giving a half-maximal response (EC50) is 7.07 µM.
The figure for `N#Cc1ccc(-n2c(O)c3[nH][nH]c(C(=O)c4ccc5ccccc5n4)c-3c2=O)cc1` [4-[(3aS,6aS)-4,6-dioxo-3-[oxo(2-quinolinyl)methyl]-3a,6a-dihydro-1H-pyrrolo[3,4-c]pyrazol-5-yl]benzonitrile] is 7 µM; for `Cc1cccc(Cc2sc(Nc3ccccn3)nc2O)c1` [5-(3-Methyl-benzyl)-2-(pyridin-2-ylimino)-thiazolidin-4-one] it is 6.22 µM; for `O=C1CC(=O)CC(c2ccc(Cl)cc2)C1` [5-(4-chlorophenyl)-3-hydroxy-1-cyclohex-2-enone] it is 5.6 µM.
The result for `CC1=CC([N+](=O)[O-])=CC(C=NNC(=O)c2cc(C)n[nH]2)C1=O` (stereo unspecified) [5-methyl-N'-[(E)-(5-methyl-3-nitro-6-oxo-1-cyclohexa-2,4-dienylidene)methyl]-1H-pyrazole-3-carbohydrazide] reads 2.87 µM.
`COc1ccc(CN=Nc2cc(OC)ncn2)cc1` [6-methoxy-N-[(4-methoxyphenyl)methylideneamino]-4-pyrimidinamine]: the EC50 turned out to be 3.1 µM.
The result for `C=CCc1c(C)nc(-c2ccccc2)nc1N=NCc1ccccc1` [6-methyl-2-phenyl-N-[(phenylmethylene)amino]-5-prop-2-enyl-4-pyrimidinamine] reads 4.7 µM.
On to `O=C1Nc2ccccc2[C@@]12N[C@@H](Cc1ccc(O)cc1)c1c2c(O)n(-c2ccc(F)cc2)c1O` [(1S,3R,3aR,6aS)-5-(4-fluorophenyl)-1-(4-hydroxybenzyl)spiro[1,2,3a,6a-tetrahydropyrrolo[3,4-c]pyrrole-3,3'-indoline]-2',4,6-trione], for which the EC50 was determined as 7.87 µM.
The result for `O=C1c2ccccc2SC1/C=N/c1cc([N+](=O)[O-])ccc1O` (stereo unspecified) [(2Z)-2-[[(5-nitro-2-oxidanyl-phenyl)amino]methylidene]-1-benzothiophen-3-one] reads 0.457 µM; that for `CCOc1ccc2c(c1)C(N=O)C(=O)N2C` (stereo unspecified) [(3E)-5-ethoxy-1-methyl-1H-indole-2,3-dione 3-oxime], 3.14 µM; that for `O=C1Nc2ccc(F)cc2C12NC(Cc1ccc(O)cc1)c1c2c(O)n(-c2ccc(F)cc2)c1O` [(3aR,6aS)-5'-fluoranyl-5-(4-fluorophenyl)-1-[(4-hydroxyphenyl)methyl]spiro[1,2,3a,6a-tetrahydropyrrolo[3,4-c]pyrrole-3,3'-1H-indole]-2',4,6-trione], 7.52 µM.
The figure for `Cc1cc(C)nc(N=NCc2cccc3ccccc23)n1` [(4,6-dimethylpyrimidin-2-yl)-(1-naphthylmethyleneamino)amine] is 5.39 µM; for `COc1cc(C2NC(=O)N=C(C)C2C(=O)OCc2ccc(C)cc2)cc(OC)c1O` (stereo unspecified) [(4-methylphenyl)methyl 4-(3,5-dimethoxy-4-oxidanyl-phenyl)-6-methyl-2-oxidanylidene-3,4-dihydro-1H-pyrimidine-5-carboxylate] it is 3.65 µM.
The result for `Cc1ccc(C)c(C(=O)C2C(=O)C(=O)N(CCCn3ccnc3)C2c2ccncc2)c1` (stereo unspecified) [(4E)-4-[(2,5-dimethylphenyl)-hydroxy-methylene]-1-(3-imidazol-1-ylpropyl)-5-(4-pyridyl)pyrrolidine-2,3-quinone] reads 6.31 µM.
`Cc1cc(N=NCc2ccc(O)cc2O)nc(-n2nc(C)cc2C)n1` [(4E)-4-[[2-[2-(3,5-dimethylpyrazol-1-yl)-6-methyl-pyrimidin-4-yl]hydrazinyl]methylidene]-3-oxidanyl-cyclohexa-2,5-dien-1-one]: the EC50 is < 0.195 µM.
Regarding `C=CCc1c(C)nc(-c2ccccc2)nc1N=NC(C)c1ccccc1` (stereo unspecified) [(5-allyl-6-methyl-2-phenyl-pyrimidin-4-yl)-(1-phenylethylideneamino)amine], the EC50 came out at 2.34 µM.
The figure for `C=CCc1c(C)nc(-c2ccccc2)nc1N=NC(C)c1ccc(N)cc1` (stereo unspecified) [(5-allyl-6-methyl-2-phenyl-pyrimidin-4-yl)-[1-(4-aminophenyl)ethylideneamino]amine] is 6.99 µM; for `CCCCCCN1C(=O)C(=Cc2c[nH]nc2-c2ccccc2)SC1=S` [(5Z)-3-hexyl-5-[(5-phenyl-1H-pyrazol-4-yl)methylidene]-2-sulfanylidene-1,3-thiazolidin-4-one] it is 4.16 µM; for `CCc1ccc(C(C)N=Nc2cc(Cl)nc(C)n2)cc1` (stereo unspecified) [(6-chloro-2-methyl-pyrimidin-4-yl)-[1-(4-ethylphenyl)ethylideneamino]amine] it is 3.75 µM.
The figure for `COC(=O)C(C=Nc1ccc(O)cc1)[N+](=O)[O-]` (stereo unspecified) [(Z)-3-(4-hydroxyanilino)-2-nitro-2-propenoic acid methyl ester] is 1.12 µM; for `CCN(C1CCCCC1)S(=O)(=O)c1cc(C)ccc1OC` [MLS000028538] it is 3.33 µM.
The figure for `O=C(Nc1nc(O)cs1)c1ccccc1` [MLS000106877] is 3.78 µM.
`O=C1/C(=C/c2nc3ccccc3[nH]2)SC(=S)N1c1ccc(F)cc1` [MLS000331487]: the EC50 came to 3.39 µM.
The figure for `O=C(CC=NNC(=O)c1ccccc1)c1ccc(Br)cc1` [MLS000532545] is 2.86 µM.
Consider `COc1ccc(NC(=O)Cc2c(O)n(-c3ccc(Cl)cc3)c(=S)n2NC(=O)c2cccc(F)c2)cc1` [MLS000590171], for which the EC50 was determined as 3.59 µM.
The result for `COc1ccc(NC(=O)Cc2c(O)n(-c3ccc(F)cc3)c(=S)n2NC(=O)c2ccccc2)cc1` [MLS000592105] reads 4.29 µM.
The result for `COc1cccc(C=NNC(=O)c2[nH][nH]c(=O)c2C)c1O` [N'-[(E)-(5-methoxy-6-oxidanylidene-cyclohexa-2,4-dien-1-ylidene)methyl]-4-methyl-5-oxidanylidene-1,4-dihydropyrazole-3-carbohydrazide] reads 6.47 µM; that for `COc1cccc(C2C(C(=O)Nc3nc4ccccc4s3)=C(C)N=C3CC(C)(C)CC(=O)C32)c1OC` (stereo unspecified) [N-(1,3-benzothiazol-2-yl)-4-(2,3-dimethoxyphenyl)-2,7,7-trimethyl-5-oxo-1,4,6,8-tetrahydroquinoline-3-carboxamide], 1.6 µM.
The result for `Oc1csc(=S)n1N=C1CCCCCC1` [SMR000212426] reads 4.99 µM; that for `COc1ccc(CN=Nc2cc(C)nc(-n3nc(C)cc3C)n2)cc1` [SMR000212741], 0.656 µM; that for `COc1ccc(CN2C(=O)C(=CNc3ccc(OC)cc3)c3ccccc3C2=O)cc1` [SMR000259567], 7.24 µM.
